# Reference: PubChem BioAssay (NCI)
#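 Each compound was tested at five concentrations against cells in 96-well plates for 48 hours. TGI marks complete inhibition of growth.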
# Tested on: NCI-H23 lung
# Experiment: NCI anticancer screen, dose series, 48 h
row,SMILES,TGI [µM]
1,CC(=O)OC(OC(C)=O)c1ccc2ccc3cccc4ccc1c2c34,45.1

# Tested on: MDA-MB-231 breast
# Experiment: NCI anticancer screen, dose series, 48 h
row,SMILES,TGI [µM]
1,O=C1C=CC(=O)c2c1ccc1c3ccccc3n(CCCCCn3c4ccccc4c4ccc5c(c43)C(=O)C=CC5=O)c21,46.8
2,C=C(Cl)C(=CCl)CCC(Br)C(C)(C)Cl (mixture of isomers),> 10
3,O=C1C2SC34c5c2c2ccccc2n5CCC3CCCN14 (stereo not drawn),> 100
4,CC(=O)N(C(C)=O)c1ncc(-n2nc(-c3ccccc3)cc2-c2ccccc2)c(-c2ccccc2)n1,> 10
5,CN1C(=O)c2ccccc2OC12C=Cc1c(ccc3ccccc13)O2 (stereo not drawn),44.6
6,CC(=O)Nc1sc(Br)cc1S(=O)(=O)c1ccc(Cl)cc1,> 100
7,O=C1Sc2cc3ccccc3cc2C(=O)Sc2ccc(Br)cc21,12.2
8,O=C(/C=C/c1ccccc1)Oc1cccc(O)c1,> 100
9,CC(C)NC(=O)OCc1c(COC(=O)NC(C)C)c(-c2cc[n+](COC(=O)C3CC3)cc2)n2c1CCC2,> 100
10,COC(=O)C1=C(C(=O)OC)N(c2ccc(OC)cc2[N+](=O)[O-])C(c2ccc(C)cc2)=CC1c1ccc(OC)cc1OC (stereo not drawn),> 74
11,O=c1[nH]nnc2c1sc1ncccc12,> 100
12,Cc1ccc(C2SCC(=O)N2c2ccc(-n3c(-c4ccccc4)nc4ccccc4c3=O)cc2)cc1 (stereo not drawn),39.6
13,C/C=C/C(CC(O)(C(F)(F)F)C(F)(F)F)=N/NC(N)=S,> 10
14,Fc1ccc2c(c1)nc1n2C(c2c(Cl)cccc2Cl)SC1 (stereo not drawn),30.5
15,CC(C)C1=CC23CCC4C(C)(C(=O)O)CCCC4(C)C2CC1C1C(=O)N(c2ccc(Cc4ccc(N5C(=O)C6C7CC8C9(C)CCCC(C)(C(=O)O)C9CCC8(C=C7C(C)C)C6C5=O)cc4)cc2)C(=O)C13 (stereo not drawn),58.8
16,NC(N)=NS(=O)(=O)c1ccc(NNc2c3ccccc3nc3c(C(=O)Nc4ccc(S(=O)(=O)Nc5ncccn5)cc4)cccc23)cc1,> 100
17,CCOC1(OCC)C2C=CC1C(COS(=O)(=O)c1ccc(C)cc1)C2COS(=O)(=O)c1ccc(C)cc1 (stereo not drawn),69.5
18,Cc1[nH]c(=O)nc2nc3ccc(Cl)cc3c(NCCNCCO)c12,24
19,CC(C)(C)OC(=O)NC1CCCCC1NC(=O)C(=O)NC1CCCCC1NC(=O)OC(C)(C)C (stereo not drawn),> 100
20,COc1cc(C2c3cc4c(cc3OC(N3CCCCC3)C2C)OCO4)cc(OC)c1O (stereo not drawn),28.1
21,N#C[C@H](c1ccccn1)c1nc2ccccc2nc1Cl,> 100
22,Cc1c(C)c2c(c(N)c1C#N)C(=O)N(NC(=O)c1ccccc1)C2=O,> 100
23,O=C1COc2cccnc2N1CCCCO,> 100
24,CC(=O)OC(OC(C)=O)c1ccc2ccc3cccc4ccc1c2c34,84.1

# Tested on: A498 renal
# Experiment: NCI anticancer screen, dose series, 48 h
row,SMILES,TGI [µM]
1,O=C1C=CC(=O)c2c1ccc1c3ccccc3n(CCCCCn3c4ccccc4c4ccc5c(c43)C(=O)C=CC5=O)c21,> 95.7
2,C=C(Cl)C(=CCl)CCC(Br)C(C)(C)Cl (mixture of isomers),> 10
3,O=C1C2SC34c5c2c2ccccc2n5CCC3CCCN14 (stereo not drawn),> 100
4,CC(=O)N(C(C)=O)c1ncc(-n2nc(-c3ccccc3)cc2-c2ccccc2)c(-c2ccccc2)n1,> 10
5,CN1C(=O)c2ccccc2OC12C=Cc1c(ccc3ccccc13)O2 (stereo not drawn),44.9
6,CC(=O)Nc1sc(Br)cc1S(=O)(=O)c1ccc(Cl)cc1,> 100
7,O=C1Sc2cc3ccccc3cc2C(=O)Sc2ccc(Br)cc21,33.4
8,O=C(/C=C/c1ccccc1)Oc1cccc(O)c1,> 100
9,CC(C)NC(=O)OCc1c(COC(=O)NC(C)C)c(-c2cc[n+](COC(=O)C3CC3)cc2)n2c1CCC2,> 100
10,COC(=O)C1=C(C(=O)OC)N(c2ccc(OC)cc2[N+](=O)[O-])C(c2ccc(C)cc2)=CC1c1ccc(OC)cc1OC (stereo not drawn),46.3
11,O=c1[nH]nnc2c1sc1ncccc12,> 100
12,Cc1ccc(C2SCC(=O)N2c2ccc(-n3c(-c4ccccc4)nc4ccccc4c3=O)cc2)cc1 (stereo not drawn),90.3
13,C/C=C/C(CC(O)(C(F)(F)F)C(F)(F)F)=N/NC(N)=S,> 10
14,Fc1ccc2c(c1)nc1n2C(c2c(Cl)cccc2Cl)SC1 (stereo not drawn),35.4
15,CC(C)C1=CC23CCC4C(C)(C(=O)O)CCCC4(C)C2CC1C1C(=O)N(c2ccc(Cc4ccc(N5C(=O)C6C7CC8C9(C)CCCC(C)(C(=O)O)C9CCC8(C=C7C(C)C)C6C5=O)cc4)cc2)C(=O)C13 (stereo not drawn),22.5
16,NC(N)=NS(=O)(=O)c1ccc(NNc2c3ccccc3nc3c(C(=O)Nc4ccc(S(=O)(=O)Nc5ncccn5)cc4)cccc23)cc1,> 100
17,CCOC1(OCC)C2C=CC1C(COS(=O)(=O)c1ccc(C)cc1)C2COS(=O)(=O)c1ccc(C)cc1 (stereo not drawn),54.9
18,Cc1[nH]c(=O)nc2nc3ccc(Cl)cc3c(NCCNCCO)c12,34.6
19,CC(C)(C)OC(=O)NC1CCCCC1NC(=O)C(=O)NC1CCCCC1NC(=O)OC(C)(C)C (stereo not drawn),79.6
20,COc1cc(C2c3cc4c(cc3OC(N3CCCCC3)C2C)OCO4)cc(OC)c1O (stereo not drawn),27.1
21,N#C[C@H](c1ccccn1)c1nc2ccccc2nc1Cl,> 100
22,Cc1c(C)c2c(c(N)c1C#N)C(=O)N(NC(=O)c1ccccc1)C2=O,> 100
23,O=C1COc2cccnc2N1CCCCO,> 100
24,CC(=O)OC(OC(C)=O)c1ccc2ccc3cccc4ccc1c2c34,3.74

# Tested on: UACC-62 melanoma
# Experiment: NCI anticancer screen, dose series, 48 h
row,SMILES,TGI [µM]
1,O=C1C=CC(=O)c2c1ccc1c3ccccc3n(CCCCCn3c4ccccc4c4ccc5c(c43)C(=O)C=CC5=O)c21,71.8
2,C=C(Cl)C(=CCl)CCC(Br)C(C)(C)Cl (mixture of isomers),> 10
3,O=C1C2SC34c5c2c2ccccc2n5CCC3CCCN14 (stereo not drawn),> 100
4,CC(=O)N(C(C)=O)c1ncc(-n2nc(-c3ccccc3)cc2-c2ccccc2)c(-c2ccccc2)n1,> 10
5,CN1C(=O)c2ccccc2OC12C=Cc1c(ccc3ccccc13)O2 (stereo not drawn),> 47.1
6,CC(=O)Nc1sc(Br)cc1S(=O)(=O)c1ccc(Cl)cc1,> 100
7,O=C1Sc2cc3ccccc3cc2C(=O)Sc2ccc(Br)cc21,10.5
8,O=C(/C=C/c1ccccc1)Oc1cccc(O)c1,> 100
9,CC(C)NC(=O)OCc1c(COC(=O)NC(C)C)c(-c2cc[n+](COC(=O)C3CC3)cc2)n2c1CCC2,> 100
